Experimental findings from US11912693B2, “Compounds for modulating S1P1 activity and methods of using the same” (TREVENA, INC., priority 2017, dated 2024) are described below.

SMILES strings stand for the structures.

Assay [1] concerns the target T1, human sphingosine-1-phosphate receptor 1 (S1P1) (Homo sapiens (Human), UniProt P21453). The assay is described as follows: Inhibition of cAMP production (HTRF cAMP HiRange), S1P1 CHO-K1 cells. Format: cell-based. Conditions: for hS1P1 cAMP pEC50: inhibition of cAMP production, S1P1 CHO-K1 cells; for Emax: CHO-K1, efficacy (SPAN) normalized to fingolimod, read-out: hS1P1 cAMP SPAN. Summed up:
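CHO-K1 cells stably co-expressing human S1P1 (C-terminal Prolink tag) and EA-β-arrestin2 were grown in AssayComplete Media 6 at 37° C. and 5% CO2, plated, and incubated overnight. Agonist-driven inhibition of intracellular cAMP was read by TR-FRET with the HTRF cAMP HiRange kit on a PheraStar reader. Potency is pEC50, and efficacy (SPAN) is normalized to fingolimod.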
Target sequence in this assay (P21453 whole entry, looked up): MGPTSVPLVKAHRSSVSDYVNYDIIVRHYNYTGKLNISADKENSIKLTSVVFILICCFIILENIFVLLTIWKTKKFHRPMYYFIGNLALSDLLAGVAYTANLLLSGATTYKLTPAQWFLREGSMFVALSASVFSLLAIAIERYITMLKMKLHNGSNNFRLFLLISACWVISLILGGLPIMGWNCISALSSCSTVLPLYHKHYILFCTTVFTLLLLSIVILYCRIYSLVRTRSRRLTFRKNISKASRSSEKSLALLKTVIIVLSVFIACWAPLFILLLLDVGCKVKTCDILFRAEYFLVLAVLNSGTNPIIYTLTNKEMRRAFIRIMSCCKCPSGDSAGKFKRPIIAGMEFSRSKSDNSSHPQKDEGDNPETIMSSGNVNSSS

Assay [2] addresses T1, human sphingosine-1-phosphate receptor 1 (S1P1). Briefly: β-Arrestin2 recruitment assay (PathHunter), S1P1 CHO-K1 cells. Format: cell-based. Conditions: for hS1P1 B-arrestin2 pEC50: β-arrestin2 recruitment, S1P1 CHO-K1 cells; for Emax: CHO-K1, efficacy (SPAN) normalized to fingolimod, read-out: hS1P1 B-arrestin2 SPAN. Summed up: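 Enzyme-fragment complementation read-out: agonist-driven β-arrestin2 binding to ProLink-tagged human S1P1 in stable CHO-K1 cells restores β-galactosidase, measured 1 h at room temperature after a 60 min 37° C. compound incubation. Potency as pEC50, efficacy relative to fingolimod (SPAN).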
Target sequence in this assay (P21453 whole entry, looked up): as above
Target sequence in this assay (P32121 whole entry partner, looked up): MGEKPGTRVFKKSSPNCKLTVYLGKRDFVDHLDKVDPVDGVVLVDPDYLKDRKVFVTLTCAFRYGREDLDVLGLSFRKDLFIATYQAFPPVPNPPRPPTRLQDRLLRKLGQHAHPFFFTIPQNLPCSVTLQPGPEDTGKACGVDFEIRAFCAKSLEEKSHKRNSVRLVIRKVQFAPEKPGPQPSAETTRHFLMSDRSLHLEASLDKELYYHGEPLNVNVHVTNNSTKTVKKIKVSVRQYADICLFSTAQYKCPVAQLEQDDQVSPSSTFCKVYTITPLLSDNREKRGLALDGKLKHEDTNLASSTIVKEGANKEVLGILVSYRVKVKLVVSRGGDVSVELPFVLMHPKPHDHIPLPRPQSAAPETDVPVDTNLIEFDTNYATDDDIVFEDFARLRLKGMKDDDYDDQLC
Background: Activated receptors often draw arrestin, which recruitment assays turn into a signal.

Consider `Cc1nccnc1-c1nc(-c2ccc3c(c2)nnn3CC(C)(C)CO)no1` [Compound 540, 2,2-dimethyl-3-(5-(5-(3-methylpyrazin-2-yl)-1,2,4-oxadiazol-3-yl)-1H-benzo[d][1,2,3]triazol-1-yl)propan-1-ol], for which the “hS1P1 cAMP pEC50” value in assay [1] is less than 6.5. In assay [2], the “hS1P1 B-arrestin2 pEC50” value is listed as less than 5.

On to `Cc1ccncc1-c1nc(-c2ccc3c(c2)nnn3CC(C)(C)CO)no1` [Compound 541, 2,2-dimethyl-3-(5-(5-(4-methylpyridin-3-yl)-1,2,4-oxadiazol-3-yl)-1H-benzo[d][1,2,3]triazol-1-yl)propan-1-ol], for which the “hS1P1 cAMP pEC50” value in assay [1] is recorded as less than 6.5. Also, in assay [2], the “hS1P1 B-arrestin2 pEC50” value was less than 5.

On to `CC(C)n1nnc2cc(-c3cc(-c4ccccc4F)c[nH]3)ccc21` [Compound 542, 5-[4-(2-fluorophenyl)-1H-pyrrol-2-yl]-1-(propan-2-yl)-1H-1,2,3-benzotriazole], for which the “hS1P1 cAMP pEC50” value in assay [1] is recorded as less than 6.5. For the same compound, in assay [2], the “hS1P1 B-arrestin2 pEC50” value is greater than 5.

Regarding `CC(C)n1nnc2cc(-c3c[nH]c(-c4ccccc4)c3)ccc21` [Compound 543, 5-(5-phenyl-1H-pyrrol-3-yl)-1-(propan-2-yl)-1H-1,2,3-benzotriazole], in assay [1], the Emax was less than 75% and the “hS1P1 cAMP pEC50” value is greater than 6.5. Further, in assay [2], the Emax is less than 75% and the “hS1P1 B-arrestin2 pEC50” value was less than 5.

Consider `CC(C)n1nnc2cc(-c3cc(-c4ccccc4)n(C)c3)ccc21` [Compound 544, 5-(1-methyl-5-phenyl-1H-pyrrol-3-yl)-1-(propan-2-yl)-1H-1,2,3-benzotriazole], for which, in assay [1], the “hS1P1 cAMP pEC50” value is listed as less than 6.5. The “hS1P1 B-arrestin2 pEC50” value in assay [2] was greater than 5.

With `CCC1(CC)CC(=O)c2cc(-c3nc(-c4cncc(NS(C)(=O)=O)c4)no3)ccc2O1` [Compound 545, N-(5-(5-(2,2-diethyl-4-oxochroman-6-yl)-1,2,4-oxadiazol-3-yl)pyridin-3-yl)methanesulfonamide], in assay [1], the Emax is greater than 75% and the “hS1P1 cAMP pEC50” value was greater than 6.5. Moreover, in assay [2], the Emax was greater than 75% and the “hS1P1 B-arrestin2 pEC50” value is greater than 5.

As for `CCC1(CC)CC(=O)c2cc(-c3nc(-c4cnccc4C)no3)ccc2O1` [Compound 549, 2,2-diethyl-6-(3-(4-methylpyridin-3-yl)-1,2,4-oxadiazol-5-yl)chroman-4-one], the “hS1P1 cAMP pEC50” value in assay [1] is greater than 6.5. In assay [2], the “hS1P1 B-arrestin2 pEC50” value is given as greater than 5.

`CCC1(CC)CC(=O)c2cc(-c3nc(-c4ccc(C)nc4)no3)ccc2O1` [Compound 550, 2,2-diethyl-6-(3-(6-methylpyridin-3-yl)-1,2,4-oxadiazol-5-yl)chroman-4-one]: in assay [1], the “hS1P1 cAMP pEC50” value was less than 6.5. Besides, the “hS1P1 B-arrestin2 pEC50” value in assay [2] is greater than 5.

As for `CCC1(CC)CC(=O)c2cc(-c3nc(-c4cncc(F)c4)no3)ccc2O1` [Compound 551, 2,2-diethyl-6-(3-(5-fluoropyridin-3-yl)-1,2,4-oxadiazol-5-yl)chroman-4-one], the “hS1P1 cAMP pEC50” value in assay [1] was greater than 6.5. The “hS1P1 B-arrestin2 pEC50” value in assay [2] was greater than 5.

As to `CCC1(CC)CC(=O)c2cc(-c3ncc(-c4ccnc(O)c4)cn3)ccc2O1` [Compound 552, 2,2-diethyl-6-(5-(2-hydroxypyridin-4-yl)pyrimidin-2-yl)chroman-4-one], the “hS1P1 cAMP pEC50” value in assay [1] was less than 6.5. In addition, the “hS1P1 B-arrestin2 pEC50” value in assay [2] is less than 5.

Consider `CCC1(CC)CC(=O)c2cc(-c3nc(-c4cccc(OC)n4)no3)ccc2O1` [Compound 553, 2,2-diethyl-6-[3-(6-methoxypyridin-2-yl)-1,2,4-oxadiazol-5-yl]-3,4-dihydro-2H-1-benzopyran-4-one], for which, in assay [1], the “hS1P1 cAMP pEC50” value was less than 6.5. Further, the “hS1P1 B-arrestin2 pEC50” value in assay [2] is listed as greater than 5.

As to `CCC1(CC)CC(=O)c2cc(-c3nc(-c4ccsc4)no3)ccc2N1` [Compound 554, 2,2-diethyl-6-(3-(thiophen-3-yl)-1,2,4-oxadiazol-5-yl)-2,3-dihydroquinolin-4(1H)-one], in assay [1], the Emax was greater than 75% and the “hS1P1 cAMP pEC50” value is greater than 6.5. In assay [2], the Emax was greater than 75% and the “hS1P1 B-arrestin2 pEC50” value is recorded as greater than 5.

For the compound `CCC1(CC)CC(=O)c2cc(-c3nc(-c4ccnc(C(N)=O)c4)no3)ccc2O1` [Compound 555, 4-(5-(2,2-diethyl-4-oxochroman-6-yl)-1,2,4-oxadiazol-3-yl)picolinamide], the “hS1P1 cAMP pEC50” value in assay [1] is listed as greater than 6.5. Moreover, the “hS1P1 B-arrestin2 pEC50” value in assay [2] is recorded as greater than 5.

For the compound `CCC1(CC)CC(=O)c2cc(-c3nc(-c4ccnc(NS(C)(=O)=O)c4)no3)ccc2O1` [Compound 556, N-(4-(5-(2,2-diethyl-4-oxochroman-6-yl)-1,2,4-oxadiazol-3-yl)pyridin-2-yl)methanesulfonamide], the “hS1P1 cAMP pEC50” value in assay [1] is greater than 6.5. Further, the “hS1P1 B-arrestin2 pEC50” value in assay [2] is on record as greater than 5.

On to `CCC1(CC)CC(=O)c2cc(-c3nc(-c4cncc(C(F)(F)F)c4)no3)ccc2O1` [Compound 557, 2,2-diethyl-6-(3-(5-(trifluoromethyl)pyridin-3-yl)-1,2,4-oxadiazol-5-yl)chroman-4-one], for which the “hS1P1 cAMP pEC50” value in assay [1] is less than 6.5. In assay [2], the “hS1P1 B-arrestin2 pEC50” value was greater than 5.

As for `CCC1(CC)CC(=O)c2cc(-c3noc(-c4cccnc4)n3)ccc2O1` [Compound 559, 2,2-diethyl-6-(5-(pyridin-3-yl)-1,2,4-oxadiazol-3-yl)chroman-4-one], in assay [1], the “hS1P1 cAMP pEC50” value was greater than 6.5. The “hS1P1 B-arrestin2 pEC50” value in assay [2] was greater than 5.

With `Cc1nc2cc(-c3nnc(-c4ccc(NCC(F)F)c(C#N)c4)o3)ccc2[nH]1` [Compound 561, 2-[(2,2-difluoroethyl)amino]-5-[5-(2-methyl-1H-1,3-benzodiazol-5-yl)-1,3,4-oxadiazol-2-yl]benzonitrile], the “hS1P1 cAMP pEC50” value in assay [1] is recorded as greater than 6.5. Moreover, the “hS1P1 B-arrestin2 pEC50” value in assay [2] is on record as greater than 5.

As to `COc1ccccc1-c1cnc(-c2ccc3c(c2)nnn3C(C)C)nc1` [Compound 565, 1-isopropyl-5-(5-(2-methoxyphenyl)pyrimidin-2-yl)-1H-benzo[d][1,2,3]triazole], the “hS1P1 cAMP pEC50” value in assay [1] was greater than 6.5. In addition, in assay [2], the “hS1P1 B-arrestin2 pEC50” value is reported as greater than 5.

For `COc1ccccc1-c1c[nH]c(-c2ccc3c(c2)nnn3C(C)C)c1` [Compound 566, 5-[4-(2-methoxyphenyl)-1H-pyrrol-2-yl]-1-(propan-2-yl)-1H-1,2,3-benzotriazole], the “hS1P1 cAMP pEC50” value in assay [1] was less than 6.5. Besides, in assay [2], the “hS1P1 B-arrestin2 pEC50” value is less than 5.

With `Cn1ccnc1-c1noc(-c2ccc3c(c2)nnn3CC(C)(C)O)n1` [Compound 567, 2-methyl-1-{5-[3-(1-methyl-1H-imidazol-2-yl)-1,2,4-oxadiazol-5-yl]-1H-1,2,3-benzotriazol-1-yl}propan-2-ol], in assay [1], the “hS1P1 cAMP pEC50” value is on record as less than 6.5. In addition, the “hS1P1 B-arrestin2 pEC50” value in assay [2] is less than 5.

With `CC(C)n1nnc2cc(-c3nc(-c4nccn4C)no3)ccc21` [Compound 569, 5-[3-(1-methyl-1H-imidazol-2-yl)-1,2,4-oxadiazol-5-yl]-1-(propan-2-yl)-1H-1,2,3-benzotriazole], in assay [1], the Emax was greater than 75% and the “hS1P1 cAMP pEC50” value was less than 6.5. Besides, in assay [2], the Emax was less than 75% and the “hS1P1 B-arrestin2 pEC50” value is reported as less than 5.

On to `CC(C)(O)Cn1nnc2cc(-c3nc(-c4cocn4)no3)ccc21` [Compound 570, 2-methyl-1-{5-[3-(1,3-oxazol-4-yl)-1,2,4-oxadiazol-5-yl]-1H-1,2,3-benzotriazol-1-yl}propan-2-ol], for which, in assay [1], the Emax was less than 75% and the “hS1P1 cAMP pEC50” value was less than 6.5. In assay [2], the Emax is less than 75% and the “hS1P1 B-arrestin2 pEC50” value is less than 5.
